Measured values reported in PubChem BioAssay AID2060511 (Molecular Pharmacology Branch, DTP, NCI, 2025).
pIC50: −log10 of the molar value.

System: 422866-222-R5-J1-PDC spheroids with HUVEC/MSC, viability
Test: Anticancer human tumor 422866-222-R5-J1-PDC patient-derived pancreatic adenocarcinoma cell line growth inhibition [GQUAD]
Conditions: for pIC50: curve of first compound; for viability, T/C: stronger effect = lower value
From the text: DNA G-quadruplex Stabilizer Agents in Combinations in Complex Spheroids
A high-throughput screen of multi-cell type tumor spheroids was designed to identify active combinations of DNA G-quadruplex stabilizer agents and targeted small molecules. Complex spheroids include a stromal component modeled by human endothelial cells (HUVEC) and fibroblasts modeled by human mesenchymal stem cells (MSCs). The concentration ranges selected for each drug and investigational agent were based upon clinically achievable concentrations if the clinical Cmax of the agent was known.
Compounds. The drugs and investigational agents: pidnarulex (CX-5461; NSC782164), APTO-253 (NSC789042), BRACO-19 (NSC847499), peposertib (NSC802822), ceralasertib (NSC780249), elimusertib (NSC800525), camonsertib (NSC841442), AZD-1390 (NSC803789), olaparib (NSC753686), talazoparib (NSC767125), ART-558 (NSC835418), sotorasib (NSC818433), MRTX-1133 (NSC836407), SN-38 (NSC673596), topotecan (NSC609699), etoposide (NSC141540), doxorubicin (NSC123127), gemcitabine (NSC613327), 5-fluorouracil (NSC19893), paclitaxel (NSC125973), vemurafenib (NSC761431), panobinostat (NSC761190), R-306465 (JNJ-16241199; NSC773264), adavosertib (NSC754352), TP-3654 (NSC805149), carboplatin (NSC241240), KSQ-4279 (NSC840948), and staurosporine (NSC755774) were obtained from the National Cancer Institute (NCI) Developmental Therapeutics Program Chemical Repository (34). The FDA-approved anticancer drug set is available from the NCI Developmental Therapeutics Program. […] The stock solutions were prepared in dimethyl sulfoxide (DMSO, Sigma-Aldrich, St. Louis, MO, cat. D2650) at 800-fold the tested concentration and stored at -70 degrees C prior to their use. All drugs and investigational agents were tested over a range starting from a high concentration at or near the clinical Cmax and decreasing in half-log increments. If the clinical Cmax for an agent had not been determined, the highest concentration tested was 10 microM.
2.3 Cell Culture. All cells were maintained in an incubator at 37 degrees C and 5% CO2 with 95% humidity. The PDC lines were cultured according to standard operating procedures established by the NCI PDMR. All PDCs were thawed and cultured in Matrigel-coated flasks prepared with a working solution of 1X Ham's F-12 nutrient mix, without supplementation (Invitrogen, cat. 11765054), 100 U/mL penicillin-streptomycin (Invitrogen, cat. 15140122), and 2.5% Matrigel (Corning Inc., cat. 354248) for the first three passages. The 857933-349-R-J2-PDC line was cultured in 6C/Colon 1B media, which includes advanced DMEM/F-12 (Thermo Fisher Scientific, cat. 12634028), 10 mM HEPES (Thermo Fisher Scientific, cat. 15630080), 1X GlutaMAX supplement (Thermo Fisher Scientific, cat. 35050061), 0.1 mg/mL primocin (InvivoGen, cat. ant-pm-2), 10% defined fetal bovine serum, heat inactivated (HyClone Laboratories Inc., cat. SH30070.03HI), 50% L-WRN conditioned media (ATCC, cat. CRL-3276), 1.25 mM N-Acetyl-L-cysteine (Sigma-Aldrich, cat. A9165), 10 mM nicotinamide (Sigma-Aldrich, cat. N0636), 1X B-27 supplement (Thermo Fisher Scientific, cat. 17504044), 1X N-2 supplement (Thermo Fisher Scientific, cat. 17502048), 10 microM Y-27632 dihydrochloride (Tocris Bioscience, cat. 1254), and 50 ng/mL human EGF recombinant protein (Thermo Fisher Scientific, cat. PHG0311). The 485176-168-R4-J1-PDC line was cultured in Panc media, which includes all 6C/Colon 1B media components plus 100 ng/mL human FGF-10 (Thermo Fisher Scientific, cat. 100-26), 500 nM SB-431542 (Selleckchem, cat. S1067), and gastrin (Tocris, cat. 3006).
[…]

[1] = second compound 0.0316 µM, first compound 0.0316 µM
[2] = second compound 0.0316 µM, first compound 0.316 µM
[3] = second compound 0.1 µM, first compound 0.0316 µM
[4] = second compound 0.1 µM, first compound 0.316 µM
[5] = second compound 0.316 µM, first compound 0.0316 µM
[6] = second compound 0.316 µM, first compound 0.316 µM
[7] = second compound 1 µM, first compound 0.0316 µM
[8] = second compound 1 µM, first compound 0.316 µM
[9] = second compound 3.16 µM, first compound 0.0316 µM
[10] = second compound 3.16 µM, first compound 0.316 µM
[11] = second compound 10 µM, first compound 0.0316 µM
[12] = second compound 10 µM, first compound 0.316 µM
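Note: spheroids exposed to compounds for seven days before reading.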
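Throughout, for viability, T/C: percent viability relative to DMSO vehicle control taken as 100%.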

## CC[C@@]1(O)C(=O)OCc2c1cc1n(c2=O)Cc2cc3c(CN(C)C)c(O)ccc3nc2-1 + Cc1cnc(CNC(=O)c2c(=O)c3ccc(N4CCCN(C)CC4)nc3n3c2sc2ccccc23)cn1
Second compound 0.0316 µM
  pIC50: 6.72
Second compound 0.1 µM
  pIC50: < 6.50
Second compound 0.316 µM
  pIC50: < 6.50
Second compound 1 µM
  pIC50: < 6.50
Second compound 3.16 µM
  pIC50: < 6.50
Second compound 10 µM
  pIC50: < 6.50
Second compound 0.0316 µM, first compound 0.000999 µM
  viability, T/C: 97.1%
Second compound 0.0316 µM, first compound 0.00316 µM
  viability, T/C: 92.6%
Second compound 0.0316 µM, first compound 0.00999 µM
  viability, T/C: 94%
[1]
  viability, T/C: 77.1%
Second compound 0.0316 µM, first compound 0.0999 µM
  viability, T/C: 51.4%
[2]
  viability, T/C: 48.9%
Second compound 0.1 µM, first compound 0.000999 µM
  viability, T/C: 95.8%
Second compound 0.1 µM, first compound 0.00316 µM
  viability, T/C: 86.8%
Second compound 0.1 µM, first compound 0.00999 µM
  viability, T/C: 82.8%
[3]
  viability, T/C: 70.8%
Second compound 0.1 µM, first compound 0.0999 µM
  viability, T/C: 69.6%
[4]
  viability, T/C: 56.2%
Second compound 0.316 µM, first compound 0.000999 µM
  viability, T/C: 89.2%
Second compound 0.316 µM, first compound 0.00316 µM
  viability, T/C: 85%
Second compound 0.316 µM, first compound 0.00999 µM
  viability, T/C: 87.3%
[5]
  viability, T/C: 80.6%
Second compound 0.316 µM, first compound 0.0999 µM
  viability, T/C: 80.9%
[6]
  viability, T/C: 58.6%
Second compound 1 µM, first compound 0.000999 µM
  viability, T/C: 78.6%
Second compound 1 µM, first compound 0.00316 µM
  viability, T/C: 81.4%
Second compound 1 µM, first compound 0.00999 µM
  viability, T/C: 76.5%
[7]
  viability, T/C: 81.4%
Second compound 1 µM, first compound 0.0999 µM
  viability, T/C: 83.6%
[8]
  viability, T/C: 74.9%
Second compound 3.16 µM, first compound 0.000999 µM
  viability, T/C: 79.7%
Second compound 3.16 µM, first compound 0.00316 µM
  viability, T/C: 80.8%
Second compound 3.16 µM, first compound 0.00999 µM
  viability, T/C: 83.8%
[9]
  viability, T/C: 81.5%
Second compound 3.16 µM, first compound 0.0999 µM
  viability, T/C: 90.9%
[10]
  viability, T/C: 74.6%
Second compound 10 µM, first compound 0.000999 µM
  viability, T/C: 82.6%
Second compound 10 µM, first compound 0.00316 µM
  viability, T/C: 88.7%
Second compound 10 µM, first compound 0.00999 µM
  viability, T/C: 81.1%
[11]
  viability, T/C: 83.2%
Second compound 10 µM, first compound 0.0999 µM
  viability, T/C: 88.4%
[12]
  viability, T/C: 60.6%

## O=c1[nH]cc(F)c(=O)[nH]1 + Cc1cnc(CNC(=O)c2c(=O)c3ccc(N4CCCN(C)CC4)nc3n3c2sc2ccccc23)cn1
Second compound 0.0316 µM
  pIC50: < 5.00
Second compound 0.1 µM
  pIC50: < 5.00
Second compound 0.316 µM
  pIC50: < 5.00
Second compound 1 µM
  pIC50: < 5.00
Second compound 3.16 µM
  pIC50: < 5.00
Second compound 10 µM
  pIC50: < 5.00
[1]
  viability, T/C: 90%
Second compound 0.0316 µM, first compound 0.1 µM
  viability, T/C: 93.1%
[2]
  viability, T/C: 88.2%
Second compound 0.0316 µM, first compound 1 µM
  viability, T/C: 88.8%
Second compound 0.0316 µM, first compound 3.16 µM
  viability, T/C: 78%
Second compound 0.0316 µM, first compound 10 µM
  viability, T/C: 78.7%
[3]
  viability, T/C: 94.5%
Second compound 0.1 µM, first compound 0.1 µM
  viability, T/C: 79.6%
[4]
  viability, T/C: 89.4%
Second compound 0.1 µM, first compound 1 µM
  viability, T/C: 95.5%
Second compound 0.1 µM, first compound 3.16 µM
  viability, T/C: 85.8%
Second compound 0.1 µM, first compound 10 µM
  viability, T/C: 87.5%
[5]
  viability, T/C: 85.6%
Second compound 0.316 µM, first compound 0.1 µM
  viability, T/C: 69.4%
[6]
  viability, T/C: 96.1%
Second compound 0.316 µM, first compound 1 µM
  viability, T/C: 83.3%
Second compound 0.316 µM, first compound 3.16 µM
  viability, T/C: 89.7%
Second compound 0.316 µM, first compound 10 µM
  viability, T/C: 92.2%
[7]
  viability, T/C: 88.6%
Second compound 1 µM, first compound 0.1 µM
  viability, T/C: 85.8%
[8]
  viability, T/C: 85.2%
Second compound 1 µM, first compound 1 µM
  viability, T/C: 104%
Second compound 1 µM, first compound 3.16 µM
  viability, T/C: 105%
Second compound 1 µM, first compound 10 µM
  viability, T/C: 104%
[9]
  viability, T/C: 83.1%
Second compound 3.16 µM, first compound 0.1 µM
  viability, T/C: 85.2%
[10]
  viability, T/C: 93.5%
Second compound 3.16 µM, first compound 1 µM
  viability, T/C: 83.3%
Second compound 3.16 µM, first compound 3.16 µM
  viability, T/C: 99.8%
Second compound 3.16 µM, first compound 10 µM
  viability, T/C: 82.8%
[11]
  viability, T/C: 81.8%
Second compound 10 µM, first compound 0.1 µM
  viability, T/C: 78.4%
[12]
  viability, T/C: 85.7%
Second compound 10 µM, first compound 1 µM
  viability, T/C: 80.6%
Second compound 10 µM, first compound 3.16 µM
  viability, T/C: 87.5%
Second compound 10 µM, first compound 10 µM
  viability, T/C: 76.4%
